System: RXF 1781L (hypernephroma, poorly differentiated)
Assay: Propidium iodide monolayer cell proliferation assay, RXF 1781L
Assay type: cell-based, human
Conditions: four days of treatment
Description: Working stock solution of PM14 was prepared in DMSO at a concentration of 1.042 mM and small aliquots were stored at −20° C. On each day of an experiment, a frozen aliquot of the working stock solution was thawed and stored at room temperature prior to and during treatment.
Subsequent dilutions were done with complete RPMI 1640 cell culture medium. DMSO stock solutions were first diluted 1:22 (corresponding to 4.5% v/v DMSO). Starting with this solution, serial dilutions in half-log steps with cell culture medium were done using an intermediate dilution plate. Finally, 10 μl taken from the intermediate dilution plate were transferred to 140 μl/well of the cell culture plate. […]
Cell proliferation assay: A modified propidium iodide (PI) based monolayer assay was used to assess the anti-cancer activity of the compounds (Dengler WA, Schulte J, Berger DP, Mertelsmann R, Fiebig HH, Anti-Cancer Drugs 1995, 6: 522-532). Briefly, cells were harvested from exponential phase cultures, counted and plated in 96 well flat-bottom microtiter plates at a cell density of 4,000 to 30,000 cells/well dependent on the cell line's growth rate. […] After an incubation period of 1-2 hours at room temperature, fluorescence (FU) was measured using the Enspire Multimode Plate Reader (excitation A=530 nm, emission A=620 nm) to quantify the amount of attached viable cells. […]

## COc1c(C)cc2c(c1O)[C@@H]1[C@@H]3[C@@H]4SC[C@]5(N[C@H](CO)Cc6c5[nH]c5ccccc65)C(=O)OC[C@@H](c5c6c(c(C)c(OC(C)=O)c54)OCO6)N3[C@@H](O)[C@H](C2)N1C [PM14, ECUBECTEDIN]
Homo sapiens, 96 h, read-out: IC50, μM (geometric mean)
  IC50: 0.004 µM
  IC70, μM (geometric mean): 0.005 µM
